In US20090111778A1, “2-Keto-Oxazoles as Modulators of Fatty Acid Amide Hydrolase” (priority 2005, published 2009):
Where a name gives a salt, the structure may show the parent alone. Read-outs that look alike come from different tables or passages of the source.

Columns and labels:
rat FAAH = target: T1, rat FAAH (Rattus norvegicus, UniProt P97612); test: Assay Method 2: FAAH assay, hydrolysis of 3H-anandamide by homogenate of SK-N-MC cells transfected with rat FAAH; format: biochemical; details: T84 or transfected SK-N-MC cell homogenate, 3H-AEA tracer 80 nM, rt 1 h, pH 9
T1 construct: expressed in transfected cells
T1 sequence (P97612 1-579): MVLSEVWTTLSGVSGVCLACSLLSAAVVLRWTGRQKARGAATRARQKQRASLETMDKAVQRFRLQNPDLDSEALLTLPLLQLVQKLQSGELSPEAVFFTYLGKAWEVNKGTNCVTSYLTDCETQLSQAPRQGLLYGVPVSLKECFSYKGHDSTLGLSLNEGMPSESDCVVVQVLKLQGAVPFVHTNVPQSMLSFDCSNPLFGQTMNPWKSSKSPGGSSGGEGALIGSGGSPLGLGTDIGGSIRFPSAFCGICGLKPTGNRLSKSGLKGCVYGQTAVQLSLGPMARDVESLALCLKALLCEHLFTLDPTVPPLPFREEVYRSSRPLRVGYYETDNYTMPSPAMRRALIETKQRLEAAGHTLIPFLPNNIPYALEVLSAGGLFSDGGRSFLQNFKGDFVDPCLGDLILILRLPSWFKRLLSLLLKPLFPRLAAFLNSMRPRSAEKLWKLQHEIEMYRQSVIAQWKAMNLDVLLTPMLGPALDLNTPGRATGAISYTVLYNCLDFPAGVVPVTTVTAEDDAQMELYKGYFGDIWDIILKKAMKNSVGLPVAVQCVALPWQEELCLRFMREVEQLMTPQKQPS
Protocol: A. Transfection of Cells with Rat FAAH A 10-cm tissue culture dish with a confluent monolayer of SK-N-MC cells was split 2 days (d) prior to transfection. Using sterile technique, the media was removed and the cells were detached from the dish by the addition of trypsin. One fifth of the cells were then placed onto a new 10-cm dish. Cells were grown in a 37° C. incubator with 5% CO2 in Minimal Essential Media Eagle with 10% Fetal Bovine Serum. After 2 d, cells were approximately 80% confluent. These cells were removed from the dish with trypsin and pelleted in a clinical centrifuge. The pellet was re-suspended in 400 μL complete media and transferred to an electroporation cuvette with a 0.4 cm gap between the electrodes. Supercoiled rat FAAH cDNA (1 μg) was added to the cells and mixed. The voltage for the electroporation was set at 0.25 kV, and the capacitance was set at 960 μF. After electroporation, the cells were diluted into complete media (10 mL) and plated onto four 10-cm dishes. Because of the variability in the efficiency of electroporation, four different concentrations of cells were plated. The ratios used were 1:20, 1:10, and 1:5, with the remainder of the cells being added to the fourth dish. The cells were allowed to recover for 24 h before adding the selection media (complete media with 600 μg/mL G418). After 10 d, dishes were analyzed for surviving colonies of cells. Dishes with well-isolated colonies were used. Cells from individual colonies were isolated and tested. […] B. FAAH Assay […] The reaction mixture was incubated at rt for 1 h. During the incubation, 96-well Multiscreen filter plates (catalog number MAFCNOB50; Millipore, Bedford, Mass., USA) were loaded with 25 μL of activated charcoal (Multiscreen column loader, catalog number MACL09625, Millipore) and washed once with 100 μL of MeOH. Also during the incubation, 96-well DYNEX MicroLite plates (catalog number NL510410) were loaded with 100 μL of MicroScint40 (catalog number 6013641, Packard Bioscience, Meriden, Conn., USA). After the 1 h incubation, 60 μL of the reaction mixture were transferred to the charcoal plates, which were then assembled on top of the DYNEX plates using Centrifuge Alignment Frames (catalog number MACF09604, Millipore). The unbound labeled ethanolamine was centrifuged through to the bottom plate (5 min at 2000 rpm), which was preloaded with the scintillant, as described above. The plates were sealed and left at rt for 1 h before counting on a Hewlett Packard TopCount.

human FAAH = target: T2, human FAAH (Homo sapiens, UniProt O00519); test: Assay Method 1: FAAH assay, hydrolysis of 3H-anandamide by homogenate of SK-N-MC cells transfected with human FAAH; format: biochemical
T2 construct: expressed in transfected cells
T2 sequence (O00519 1-579): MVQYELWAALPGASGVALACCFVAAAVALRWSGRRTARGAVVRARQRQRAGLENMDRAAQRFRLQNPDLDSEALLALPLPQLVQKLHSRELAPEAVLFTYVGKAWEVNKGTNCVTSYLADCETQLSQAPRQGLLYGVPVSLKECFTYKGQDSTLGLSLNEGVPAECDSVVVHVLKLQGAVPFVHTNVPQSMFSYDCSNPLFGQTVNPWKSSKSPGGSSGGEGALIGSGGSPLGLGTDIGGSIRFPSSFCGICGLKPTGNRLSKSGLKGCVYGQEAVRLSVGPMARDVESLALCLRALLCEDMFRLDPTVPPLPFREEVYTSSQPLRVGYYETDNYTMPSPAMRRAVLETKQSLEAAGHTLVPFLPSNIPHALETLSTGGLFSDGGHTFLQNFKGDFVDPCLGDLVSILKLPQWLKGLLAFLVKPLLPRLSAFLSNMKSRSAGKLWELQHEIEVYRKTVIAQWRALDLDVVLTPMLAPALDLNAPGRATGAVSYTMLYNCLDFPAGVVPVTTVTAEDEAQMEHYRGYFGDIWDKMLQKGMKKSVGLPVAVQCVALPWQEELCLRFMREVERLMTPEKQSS
Protocol: A. Transfection of Cells with Human FAAH
A 10-cm tissue culture dish with a confluent monolayer of SK-N-MC cells was split 2 days (d) prior to transfection. Using sterile technique, the media was removed and the cells were detached from the dish by the addition of trypsin. One fifth of the cells were then placed onto a new 10-cm dish. Cells were grown in a 37° C. incubator with 5% CO2 in Minimal Essential Media Eagle with 10% Fetal Bovine Serum. After 2 d, cells were approximately 80% confluent. These cells were removed from the dish with trypsin and pelleted in a clinical centrifuge. The pellet was re-suspended in 400 μL complete media and transferred to an electroporation cuvette with a 0.4 cm gap between the electrodes. Supercoiled human FAAH cDNA (1 μg) was added to the cells and mixed. The voltage for the electroporation was set at 0.25 kV, and the capacitance was set at 960 μF. After electroporation, the cells were diluted into complete media (10 mL) and plated onto four 10-cm dishes. Because of the variability in the efficiency of electroporation, four different concentrations of cells were plated. The ratios used were 1:20, 1:10, and 1:5, with the remainder of the cells being added to the fourth dish. The cells were allowed to recover for 24 h before adding the selection media (complete media with 600 μg/mL G418). After 10 d, dishes were analyzed for surviving colonies of cells. Dishes with well-isolated colonies were used. Cells from individual colonies were isolated and tested.
The assay mixture consisted of […] of the cell homogenate, 10 μL of the test compound, and 40 μL of anandamide [1-^3H-ethanolamine] (3H-AEA, Perkin-Elmer, 10.3 Ci/mmol), which was added last, for a final tracer concentration of 80 nM. The reaction mixture was incubated at rt for 1 h. During the incubation, 96-well Multiscreen filter plates (catalog number MAFCNOB50; Millipore, Bedford, Mass., USA) were loaded with 25 μL of activated charcoal (Multiscreen column loader, catalog number MACL09625, Millipore) and washed once with 100 μL of MeOH. Also during the incubation, 96-well DYNEX MicroLite plates (catalog number NL510410) were loaded with 100 μL of MicroScint40 (catalog number 6013641, Packard Bioscience, Meriden, Conn., USA). After the 1 h incubation, 60 μL of the reaction mixture were transferred to the charcoal plates, which were then assembled on top of the DYNEX plates using Centrifuge Alignment Frames (catalog number MACF09604, Millipore). The unbound labeled ethanolamine was centrifuged through to the bottom plate (5 min at 2000 rpm), which was preloaded with the scintillant, as described above. The plates were sealed and left at rt for 1 h before counting on a Hewlett Packard TopCount.

[1] = human FAAH, T84 or transfected SK-N-MC cell homogenate, 3H-AEA tracer 80 nM, rt 1 h, pH 9, read-out: Assay 1 IC50

Row | IC50 (rat FAAH) [nM] | IC50 (human FAAH; [1]) [nM] | Structure (SMILES) | IC50 (human FAAH) [nM]
1 | 250 | 108 | O=C(CCCC1CCN(Cc2ccc(N3CCCCC3)cc2)CC1)c1ncco1 [Example 103, 1-Oxazol-2-yl-4-[1-(4-piperidin-1-yl-benzyl)-piperidin-4-yl]-butan-1-one] | –
2 | 7 | 16 | O=C(O)c1cccc(-c2cnc(C(=O)CCCC3CCN(Cc4cccc(OC5CCCCC5)c4)CC3)o2)n1 [Example 150, 6-(2-{4-[1-(3-Cyclohexyloxy-benzyl)-piperidin-4-yl]-butyryl}-oxazol-5-yl)-pyridine-2-carboxylic acid trifluoroacetic acid salt] | –
3 | 49 | 7 | CCc1ccc(CN2CCC(CCCC(=O)c3ncco3)CC2)cc1 [Example 71, 4-[1-(4-Ethyl-benzyl)-piperidin-4-yl]-1-oxazol-2-yl-butan-1-one] | –
4 | 308 | 36 | COc1cccc(CN2CCC(CCCC(=O)c3ncco3)CC2)c1 [Example 17, 4-[1-(3-Methoxy-benzyl)-piperidin-4-yl]-1-oxazol-2-yl-butan-1-one] | –
5 | 95 | 36 | O=C(CCCC1CCN(Cc2ccc(Br)c(Br)c2)CC1)c1ncco1 [Example 11, 4-[1-(3,4-Dibromo-benzyl)-piperidin-4-yl]-1-oxazol-2-yl-butan-1-one] | –
6 | 1600 | 120 | CCCS(=O)(=O)N1CCC(CCCC(=O)c2ncco2)CC1 [Example 57, 1-Oxazol-2-yl-4-[1-(propane-1-sulfonyl)-piperidin-4-yl]-butan-1-one] | –
7 | 635 | 230 | CC(C)CCC(=O)N1CCC(CCCC(=O)c2ncco2)CC1 [Example 51, 4-Methyl-1-[4-(4-oxazol-2-yl-4-oxo-butyl)-piperidin-1-yl]-pentan-1-one] | –
8 | 528 | 55 | O=C(CCCC1CCN(Cc2ccc(-c3ccco3)nc2)CC1)c1ncco1 [Example 109, 4-[1-(6-Furan-2-yl-pyridin-3-ylmethyl)-piperidin-4-yl]-1-oxazol-2-yl-butan-1-one] | –
9 | 280 | 200 | O=C(CCCC1CCN(Cc2c(F)cc(F)cc2F)CC1)c1ncco1 [Example 123, 1-Oxazol-2-yl-4-[1-(2,4,6-trifluoro-benzyl)-piperidin-4-yl]-butan-1-one] | –
10 | 14 | 26 | Cc1ccc(S(=O)(=O)N2CCC(CCCC(=O)c3ncc(C(=O)O)o3)CC2)cc1 [Example 146] | –
11 | 8 | 5 | Cc1cccc2cc(CN3CCC(CCCC(=O)c4ncco4)CC3)c(Cl)nc12 [Example 99, 4-[1-(2-Chloro-8-methyl-quinolin-3-ylmethyl)-piperidin-4-yl]-1-oxazol-2-yl-butan-1-one] | –
12 | 7 | 0.4 | Cc1ccc2nc(Cl)c(CN3CCC(CCCC(=O)c4ncco4)CC3)cc2c1 [Example 98, 4-[1-(2-Chloro-6-methyl-quinolin-3-ylmethyl)-piperidin-4-yl]-1-oxazol-2-yl-butan-1-one] | –
13 | 2 | 3 | O=C(CCCC1CCN(C(=O)OCc2ccccc2)CC1)c1ncco1 [Example 63, 4-(4-Oxazol-2-yl-4-oxo-butyl)-piperidine-1-carboxylic acid benzyl ester] | –
14 | – | 4000 | Cc1cc(CC(=O)N2CCC(CCCC(=O)c3ncco3)CC2)on1 [Example 43, 4-{1-[2-(3-Methyl-isoxazol-5-yl)-acetyl]-piperidin-4-yl}-1-oxazol-2-yl-butan-1-one] | –
15 | 1200 | – | O=C(CCCC1CCN(CCc2ccccc2)CC1)c1ncco1 [Example 95, 1-Oxazol-2-yl-4-(1-phenethyl-piperidin-4-yl)-butan-1-one] | –
16 | – | 3000 | O=C(CCCC1CCN(Cc2ccccn2)CC1)c1ncco1 [Example 4, 1-Oxazol-2-yl-4-(1-pyridin-2-ylmethyl-piperidin-4-yl)-butan-1-one] | –
17 | – | 2000 | O=C(CCCC1CCN(Cc2ccc(N3CCOCC3)cc2)CC1)c1ncco1 [Example 106, 4-[1-(4-Morpholin-4-yl-benzyl)-piperidin-4-yl]-1-oxazol-2-yl-butan-1-one] | –
18 | – | 9500 | O=C(CCCC1CCN(CC2CCCCC2)CC1)c1ncco1 [Example 86, 4-(1-Cyclohexylmethyl-piperidin-4-yl)-1-oxazol-2-yl-butan-1-one] | –

Row | Structure (SMILES) | IC50 (rat FAAH) [nM] | IC50 (human FAAH; [1]) [nM] | IC50 (human FAAH) [nM]
19 | O=C(CCCC1CCN(Cc2ccccc2Cl)CC1)c1ncco1 [Example 84, 4-[1-(2-Chloro-benzyl)-piperidin-4-yl]-1-oxazol-2-yl-butan-1-one] | 563 | 260 | –
20 | COc1ccc(CN2CCC(CCCC(=O)c3ncco3)CC2)cc1 [Example 16, 4-[1-(4-Methoxy-benzyl)-piperidin-4-yl]-1-oxazol-2-yl-butan-1-one] | 663 | – | 132
21 | COc1ccccc1CN1CCC(CCCC(=O)c2ncco2)CC1 [Example 87, 4-[1-(2-Methoxy-benzyl)-piperidin-4-yl]-1-oxazol-2-yl-butan-1-one] | – | 4000 | –
